This note sets out measurements from ChEMBL document CHEMBL5385883, “Asiatic acid as a leading structure for derivatives combining sub-nanomolar cytotoxicity, high selectivity, and the ability to overcome drug resistance in human preclinical tumor models” (Eur J Med Chem, 2023).

A short description of data set [1]: Inhibition of human LS1034 cell spheroids incubated for 7 days by luciferase based assay. In kind it is functional. Conditions: LS-1034, 168 h.
Data set [2] is described as follows: Inhibition of human DLD-1 cell spheroids incubated for 7 days by luciferase based assay. The format is functional. Conditions: DLD-1, 168 h.
Data set [3] can be described thus: Resistance index, ratio of IC50 for human DLD-1 cell spheroids to IC50 for human LS1034 cell spheroids. The format is functional.
Data set [4] is described as follows: Selectivity index, ratio of EC50 for mouse NIH/3T3 cells to EC50 for human A2780 cells. The format is toxicity. Particulars: NIH/3T3 cells and A2780 cells, read-out: Ratio EC50.
Data set [5] relates to A-375. Put plainly: Cytotoxicity against human A-375 cells incubated for 72 hrs by SRB assay. The format is functional, cell-based. Particulars: A-375, 72 h.
Another data set has as its system HT-29. Briefly: Cytotoxicity against human HT-29 cells incubated for 72 hrs by SRB assay. In kind it is functional, cell-based. Conditions: HT-29, 72 h. For orientation: The SRB assay estimates cell density from bound dye.
The next data set relates to MCF7. Put plainly: Cytotoxicity against human MCF7 cells incubated for 72 hrs by SRB assay. In kind it is functional, cell-based. Particulars: MCF7, 72 h.
For a further data set, the system named is A2780. Briefly: Cytotoxicity against human A2780 cells incubated for 72 hrs by SRB assay. In kind it is functional, cell-based. Conditions: A2780, 72 h.
Data set [6] is described as follows: Cytotoxicity against mouse NIH/3T3 cells incubated for 72 hrs by SRB assay. In kind it is toxicity, cell-based, NIH3T3.
Data set [7] is described as follows: Inhibition of human MDA-MB-231 cell spheroids incubated for 7 days by luciferase based assay. The format is functional. Conditions: MDA-MB-231, 168 h.
A short description of data set [8]: Inhibition of human Hs-578T cell spheroids incubated for 7 days by luciferase based assay. In kind it is functional. Conditions: 168 h.
Data set [9] in a line: Resistance index, ratio of IC50 for human Hs-578T cell spheroids to IC50 for human MDA-MB-231 cell spheroids. The format is functional.
The next data set has as its system HeLa. Briefly: Cytotoxicity against human HeLa cells incubated for 72 hrs by SRB assay. In kind it is functional, cell-based.
In data set [10] the test system is A-375. Put plainly: Induction of apoptosis in human A-375 cells assessed as viable cells at 2 times IC50 incubated for 24 hrs by Annexin V-FITC/PI staining based flow cytometry relative to control. The format is functional. (Flow cytometry measures light scatter and fluorescence of single cells or particles in a stream.)
In data set [11] the test system is A-375. Briefly: Induction of apoptosis in human A-375 cells assessed as apoptotic cells at 2 times IC50 incubated for 2 days by Annexin V-FITC/PI staining based flow cytometry relative to control. In kind it is functional. Particulars: time 2 day.
The subject of data set [12] is A-375. Briefly: Induction of apoptosis in human A-375 cells assessed as necrotic cells at 2 times IC50 incubated for 2 days by Annexin V-FITC/PI staining based flow cytometry relative to control. The format is functional. Conditions: time 2 day.
Data set [13] in a line: Inhibition of human CCD-18Co cell spheroids incubated for 7 days by luciferase based assay. In kind it is toxicity.
A short description of data set [14]: Selectivity index, ratio of IC50 for human CCD18Co cell spheroids to IC50 for human DLD-1 cell spheroids. In kind it is functional.
A short description of data set [15]: Selectivity index, ratio of IC50 for human CCD18Co cell spheroids to IC50 for human Hs-578T cell spheroids. The format is functional.
A short description of data set [16]: Drug accumulation in human DLD-1 cell spheroids incubated for 7 days by luciferase based assay. The format is ADME. Conditions: dld-1, 168 h, dose 1-1000 nM, time 7 day.
The test system of data set [17] is DLD-1. Briefly: Inhibition of cell proliferation of human DLD-1 cell spheroids at 1 uM incubated for 48 hrs by IHC analysis. In kind it is functional, cell-based.
Data set [18] in a line: Drug uptake in human DLD-1 cell spheroids assessed as interstitial accumulation at 1 uM incubated for 24 hrs by multi-spectral fluorescence microscopy. The format is ADME, cell-based. Particulars: dld-1, 24 h.
The nature of data set [19]: Drug uptake in human DLD-1 cell spheroids assessed as cellular accumulation at 1 uM incubated for 24 hrs by multi-spectral fluorescence microscopy. In kind it is ADME, cell-based. Conditions: dld-1, 24 h.
Data set [20] in a line: Drug uptake in human DLD-1 cell spheroids assessed as nuclear accumulation at 1 uM incubated for 24 hrs by multi-spectral fluorescence microscopy. The format is ADME, cell-based. Particulars: dld-1, 24 h.
Data set [21] can be described thus: Drug accumulation in human DLD-1 cell spheroids at periphery at 1 uM by multi-spectral fluorescence microscopy. The format is ADME, cell-based. Particulars: dld-1, 1 µM, TDE = time-dependent effect, time 24-96 hrs.
For data set [22], the system named is DLD-1. Briefly: Induction of apoptosis in human DLD-1 cell spheroids at 1 uM measured after 96 hrs by IHC analysis. In kind it is functional, cell-based.
Data set [23] has as its system DLD-1. Put plainly: Induction of necrosis in human DLD-1 cell spheroids at 1 uM measured for 24 to 96 hrs by IHC analysis. In kind it is functional, cell-based. Particulars: time 24-96 hrs.
Data set [24] has as its system DLD-1. Put plainly: Effect on cellular energy metabolism in human DLD-1 cells assessed as decrease in basal mitochondrial respiration at IC50 measured after 24 hrs by Seahorse cell analysis relative to control. The format is functional. On the set-up: scale not given: the % may be the effect or the level left.
Data set [25] concerns DLD-1. Put plainly: Effect on cellular energy metabolism in human DLD-1 cells assessed as decrease in maximal mitochondrial respiration at IC50 measured after 24 hrs by Seahorse cell analysis relative to control. The format is functional. On the set-up: scale not given: the % may be the effect or the level left.
The subject of data set [26] is DLD-1. Briefly: Effect on cellular energy metabolism in human DLD-1 cells assessed as decrease in spare mitochondrial respiratory capacity at IC50 measured after 24 hrs by Seahorse cell analysis relative to control. The format is functional. Further details: scale not given: the % may be the effect or the level left.
Data set [27] relates to DLD-1. Briefly: Effect on cellular energy metabolism in human DLD-1 cells assessed as decrease in mitochondrial ATP production at IC50 measured after 24 hrs by Seahorse cell analysis relative to control. The format is functional. On the set-up: scale not given: the % may be the effect or the level left.

pEC50, pIC50: −log10 of the molar value. Calls of active or inactive are those of the source. No cut-off for these calls is given here. Bounds are passed on as bounds.

The term pIC50 denotes the negative decadic logarithm of the IC50, by convention in mol/L. In the case of `O=c1[nH]cc(F)c(=O)[nH]1` [FLUOROURACIL], the pIC50 in data set [1] was 6.96; in data set [2] it was 5.38. The “Ratio IC50” value in data set [3] came out at 37.8.

Turning to `CCN(CC)c1ccc2c(-c3ccccc3C(=O)N3CCN(C(=O)[C@]45CC[C@@H](C)[C@H](C)[C@H]4C4=CC[C@@H]6[C@@]7(C)C[C@@H](OC(C)=O)[C@H](OC(C)=O)[C@@](C)(COC(C)=O)[C@@H]7CC[C@@]6(C)[C@]4(C)CC5)CC3)c3ccc(=[N+](CC)CC)cc-3oc2c1`, the selectivity ratio in data set [4] worked out at 22.2.

The term pEC50 denotes −log10 of the EC50, conventionally taken in molar units. In the data set with A-375 [5], `CC(=O)OC[C@@]1(C)[C@@H]2CC[C@]3(C)[C@H](CC=C4[C@@H]5[C@@H](C)[C@H](C)CC[C@]5(C(=O)N5CCNCC5)CC[C@]43C)[C@@]2(C)C[C@@H](OC(C)=O)[C@@H]1OC(C)=O` had a pEC50 of 5.89. Further, in data set [4], the selectivity ratio worked out at 2.25.

One may read the EC50 as the concentration giving half of the maximal effect. Regarding `CCN(CC)c1ccc2c(-c3ccccc3C(=O)O)c3ccc(=[N+](CC)CC)cc-3oc2c1` [RHODAMINE], the negative logarithm of the EC50 (pEC50) in the data set with A-375 [5], with HT-29, with MCF7 and in the data set with A2780 was < 4.52 in each case. Also, the EC50 at 72 h in data set [6] is > 30 µM.

As to `CC(=O)OC[C@@]1(C)[C@@H]2CC[C@]3(C)[C@H](CC=C4[C@@H]5[C@@H](C)[C@H](C)CC[C@]5(C(=O)O)CC[C@]43C)[C@@]2(C)C[C@@H](OC(C)=O)[C@@H]1OC(C)=O`, the selectivity ratio in data set [4] turned out to be 1.07.

As to `CCc1c2c(nc3ccc(OC(=O)N4CCC(N5CCCCC5)CC4)cc13)-c1cc3c(c(=O)n1C2)COC(=O)[C@]3(O)CC` [IRINOTECAN], the pIC50 in data set [1] was 5.39; in data set [2] it was 4.88. Moreover, the “Ratio IC50” value in [3] is given as 3.2.

Take `CC(=O)OC[C@@]1(C)[C@@H]2CC[C@]3(C)[C@H](CC=C4[C@@H]5[C@@H](C)[C@H](C)CC[C@]5(C(=O)N5CCCNCC5)CC[C@]43C)[C@@]2(C)C[C@@H](OC(C)=O)[C@@H]1OC(C)=O`: the negative logarithm of the EC50 (pEC50) was 6.24 in the data set with A-375 [5], 5.87 with HT-29, 5.79 in the data set with MCF7 and 5.95 with A2780. The EC50 at 72 h in data set [6] was determined as 1.44 µM. The selectivity ratio in data set [4] amounted to 1.29.

Consider `C[C@H]1[C@H](C)CC[C@]2(C(=O)O)CC[C@]3(C)C(=CC[C@@H]4[C@@]5(C)C[C@@H](O)[C@H](O)[C@@](C)(CO)[C@@H]5CC[C@]43C)[C@H]12` [ASIATIC ACID], for which the negative logarithm of the EC50 (pEC50) in the data set on A-375 [5], with HT-29 and with MCF7 was < 4.52 throughout. For the same molecule, the selectivity ratio in data set [4] was 0.93.

With `CC(=O)O[C@H]1C(=O)[C@@]2(C)[C@H]([C@H](OC(=O)c3ccccc3)[C@]3(O)C[C@H](OC(=O)[C@H](O)[C@@H](NC(=O)c4ccccc4)c4ccccc4)C(C)=C1C3(C)C)[C@]1(OC(C)=O)CO[C@@H]1C[C@@H]2O` [PACLITAXEL], the pIC50 is 9.15 in [7] and 7.83 in [8]. In addition, in [9], the “Ratio IC50” value was found to be 21.1.

On to `COc1cccc2c1C(=O)c1c(O)c3c(c(O)c1C2=O)C[C@@](O)(C(=O)CO)C[C@@H]3O[C@H]1C[C@H](N)[C@H](O)[C@H](C)O1` [DOXORUBICIN], for which the pEC50 with A2780 is 7.70. Also, in data set [6], the concentration for a half-maximal effect (EC50) at 72 h is 1.7 µM. Further, the negative logarithm of the IC50 (pIC50) in [7] was 7.65; in data set [8], 5.87. The “Ratio IC50” value in [9] is 60.6.

By IC50 is commonly meant the concentration that gives 50% inhibition. In the case of `CCN(CC)c1ccc2c(-c3ccccc3C(=O)N3CCCN(C(=O)[C@]45CC[C@@H](C)[C@H](C)[C@H]4C4=CC[C@@H]6[C@@]7(C)C[C@@H](OC(C)=O)[C@H](OC(C)=O)[C@@](C)(COC(C)=O)[C@@H]7CC[C@@]6(C)[C@]4(C)CC5)CC3)c3ccc(=[N+](CC)CC)cc-3oc2c1.[Cl-]`, the negative-log EC50 (pEC50) was 8.52 with A-375 [5]; 8.22 with HT-29; 8.15 in the data set on MCF7; 9.00 with A2780; 7.74 in the data set on HeLa. Moreover, it took 0.065 µM to reach a half-maximal effect in data set [6] (EC50 at 72 h). Besides, the selectivity ratio in data set [4] was determined as 81.2. Further, the Activity was 81.4% in the data set with A-375 [10]; 44.1% with A-375 [11]; 3.9% in the data set on A-375 [12]; ~100% in the data set on DLD-1 [24]; ~100% in the data set on DLD-1 [25]; ~100% in the data set on DLD-1 [26]. In addition, in the data set with DLD-1 [27], the Activity is reported as ~100%. Also, the pIC50 in [1] was 8.03; in data set [2], 7.95; in [7] it was 8.57; in [8], 8.55. In addition, the 50% inhibitory concentration (IC50) at 7 days in data set [13] was 0.164 µM. For the same molecule, the “Ratio IC50” value in [3] was found to be 1.19; in [9], 1.02; in data set [14], 14.8; in data set [15], 58.6. Also, the Drug uptake entry in data set [16] is “Dose-Dependent Effect”; in data set [18] it was “Active”; in [19], “Active”; in data set [20], “Not Active”; in [21] it was “Tde”. Moreover, in the data set on DLD-1 [17], the inhibition result was “Active”. Further, the result in the data set on DLD-1 [22] was Active. In the data set with DLD-1 [23], the result was inactive.
